Positions of bridges follow the written chain, without caps; N, C: chain ends. Non-standard residues stand in square brackets, D forms with d. Residues, ends and D or L forms follow the SMILES beside them. Trp(1-CH2COOH) = N[C@@H](Cc1cn(CC(=O)O)c2ccccc12)C(=O)O; Phe(4-F) = N[C@@H](Cc1ccc(F)cc1)C(=O)O; Phe(4-Me) = Cc1ccc(C[C@H](N)C(=O)O)cc1; Hyp = O=C(O)[C@@H]1C[C@@H](O)CN1; Aad = N[C@@H](CCCC(=O)O)C(=O)O; NMeNle = CCCC[C@H](NC)C(=O)O; dOrn = NCCC[C@@H](N)C(=O)O; Pip = O=C(O)[C@@H]1CCCCN1; NMeA = CN[C@@H](C)C(=O)O; Orn = NCCC[C@H](N)C(=O)O; Dab = NCC[C@H](N)C(=O)O; Dap = NC[C@H](N)C(=O)O; Ava = NCCCCC(=O)O; βAla = NCCC(=O)O
target: T1, PD-1-Ig binding to PD-L1-TVMV-His (PD-L1-His) (Homo sapiens, UniProt Q9NZQ7); test: PD-1/PD-L1 Homogenous Time-Resolved Fluorescence (HTRF) binding assay; conditions: PD-1-Ig (20 nM) / PD-L1-His (10 nM); range classes
T1 construct: hPDL1(19-239)-TVMV-His; made in house; host or cells: HEK293T cells
T1 sequence (Q9NZQ7 with tags, fused parts or gaps): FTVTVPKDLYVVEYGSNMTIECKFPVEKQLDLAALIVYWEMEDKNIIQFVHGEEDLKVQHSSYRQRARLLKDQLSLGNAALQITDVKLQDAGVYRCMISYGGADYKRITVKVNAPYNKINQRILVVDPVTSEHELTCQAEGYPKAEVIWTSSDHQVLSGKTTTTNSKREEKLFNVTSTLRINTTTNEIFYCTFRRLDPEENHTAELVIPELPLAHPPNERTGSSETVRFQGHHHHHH
Procedure, shortened: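 In dPBS with 0.1% BSA and 0.05% Tween-20, inhibitors were preincubated 15 min with 10 nM PD-L1-His before 20 nM PD-1-Ig was added for another 15 min. Binding read by time-resolved FRET between Eu-cryptate anti-Ig (1 nM) and APC anti-His (20 nM).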

| SMILES | IC50 |
| --- | --- |
| CCCC[C@H]1C(=O)N(C)[C@@H](CCCC)C(=O)N[C@@H](CC(C)C)C(=O)NCCCCC(=O)N[C@@H](Cc2ccc(OC)cc2)C(=O)N2CCCC[C@H]2C(=O)N[C@@H](CC(N)=O)C(=O)N2CCC[C@H]2C(=O)N[C@@H](CN)C(=O)N[C@@H](CCC(=O)O)C(=O)N2C[C@H](O)C[C@H]2C(=O)N[C@@H](Cc2c[nH]c3ccccc23)C(=O)N[C@@H](CCN)C(=O)N[C@@H](Cc2cn(CC(=O)O)c3ccccc23)C(=O)N1C [Example 10542] (cyclo([Ava]Y(Me)[Pip]NP[Dap]E[Hyp]W[Dab][Trp(1-CH2COOH)][NMeNle][NMeNle]L)) | 0.001 to 0.0099 µM |
| CCCC[C@H]1C(=O)N(C)[C@@H](CCCC)C(=O)N[C@@H](CC(C)C)C(=O)N[C@H](C(N)=O)CCCC(=O)N[C@@H](Cc2ccc(C)cc2)C(=O)N2CCCC[C@H]2C(=O)N[C@@H](CC(N)=O)C(=O)N2CCC[C@H]2C(=O)N[C@@H](CN)C(=O)N[C@@H](CCC(=O)O)C(=O)N2C[C@H](O)C[C@H]2C(=O)N[C@@H](Cc2c[nH]c3ccccc23)C(=O)N[C@@H](CCN)C(=O)N[C@@H](Cc2cn(CC(=O)O)c3ccccc23)C(=O)N1C [Example 10521] ([Phe(4-Me)][Pip]NP[Dap]E[Hyp]W[Dab][Trp(1-CH2COOH)][NMeNle][NMeNle]L[Aad]-NH2; lactam N-14) | 0.01 to 0.099 µM |
| CCCC[C@H]1C(=O)N(C)[C@@H](CCCC)C(=O)N[C@@H](CO)C(=O)N[C@H](C(=O)NCC(N)=O)CCCNCC(=O)N[C@@H](Cc2ccc(O)cc2)C(=O)N(C)[C@@H](C)C(=O)N[C@@H](CC(N)=O)C(=O)N2CCC[C@H]2C(=O)N[C@@H](Cc2cnc[nH]2)C(=O)N[C@@H](CCC(N)=O)C(=O)N2C[C@H](O)C[C@H]2C(=O)N[C@@H](Cc2c[nH]c3ccccc23)C(=O)N[C@@H](CO)C(=O)N[C@@H](Cc2c[nH]c3ccccc23)C(=O)N1C [Example 10025] | 0.1 to 10 µM |
| CCCC[C@H]1C(=O)N(C)[C@@H](CCCC)C(=O)N[C@@H](CC(C)C)C(=O)N[C@H](C(N)=O)COCC(=O)N[C@@H](Cc2ccc(C)cc2)C(=O)N2CCCC[C@H]2C(=O)N[C@@H](CC(N)=O)C(=O)N2CCC[C@H]2C(=O)N[C@@H](CN)C(=O)N[C@@H](CC(C)C)C(=O)N2C[C@H](O)C[C@H]2C(=O)N[C@@H](Cc2c[nH]c3ccccc23)C(=O)N[C@@H](CCN)C(=O)N[C@@H](Cc2cn(CC(=O)O)c3ccccc23)C(=O)N1C [Example 10527] | 0.01 to 0.099 µM |
| CCCC[C@H]1C(=O)N(C)[C@@H](CCCC)C(=O)N[C@@H](CC(C)C)C(=O)NCCC[C@H](N)C(=O)N[C@@H](Cc2ccc(O)cc2)C(=O)N2CCCC[C@H]2C(=O)N[C@@H](CC(N)=O)C(=O)N2CCC[C@H]2C(=O)N[C@@H](CN)C(=O)N[C@@H](CC(C)C)C(=O)N2CCC[C@H]2C(=O)N[C@@H](Cc2c[nH]c3ccccc23)C(=O)N[C@@H](CCN)C(=O)N[C@@H](Cc2cn(CC(=O)O)c3ccccc23)C(=O)N1C [Example 10511] (H-[Orn]Y[Pip]NP[Dap]LPW[Dab][Trp(1-CH2COOH)][NMeNle][NMeNle]L; lactam 1-C) | 0.1 to 10 µM |
| CCCC[C@H]1C(=O)N(C)[C@@H](CCCC)C(=O)NC(CC(C)C)C(=O)N[C@H](C(N)=O)CNCC(=O)N[C@@H](Cc2ccc(O)cc2)C(=O)N(C)[C@@H](C)C(=O)N[C@@H](CC(N)=O)C(=O)N2CCC[C@H]2C(=O)N[C@@H](CN)C(=O)N[C@@H](CCC(=O)O)C(=O)N2C[C@H](O)C[C@H]2C(=O)N[C@@H](Cc2c[nH]c3ccccc23)C(=O)N[C@@H](CCN)C(=O)N[C@@H](Cc2cn(CC(=O)O)c3ccccc23)C(=O)N1C (some centres unmarked) [Example 1035] | 0.001 to 0.0099 µM |
| CCCC[C@H]1C(=O)N(C)[C@@H](CCCC)C(=O)N[C@@H](CC(C)C)C(=O)NCCC[C@@H](N)C(=O)N[C@@H](Cc2ccc(F)cc2)C(=O)N2CCCC[C@H]2C(=O)N[C@@H](CC(N)=O)C(=O)N2CCC[C@H]2C(=O)N[C@@H](CN)C(=O)N[C@@H](CC(C)C)C(=O)N2C[C@H](O)C[C@H]2C(=O)N[C@@H](Cc2c[nH]c3ccccc23)C(=O)N[C@@H](CCN)C(=O)N[C@@H](Cc2cn(CC(=O)O)c3ccccc23)C(=O)N1C [Example 10566] (H-[dOrn][Phe(4-F)][Pip]NP[Dap]L[Hyp]W[Dab][Trp(1-CH2COOH)][NMeNle][NMeNle]L; lactam 1-C) | 0.001 to 0.0099 µM |
| CCCC[C@H]1C(=O)N(C)[C@@H](CCCC)C(=O)N[C@@H](CC(C)C)C(=O)N[C@H](C(=O)NCC(N)=O)CNCC(=O)N[C@@H](Cc2ccc(O)cc2)C(=O)N(C)[C@@H](C)C(=O)N[C@@H](CC(N)=O)C(=O)N2CCC[C@H]2C(=O)N[C@@H](CCC(N)=O)C(=O)N[C@@H](CC(C)C)C(=O)N2C[C@H](O)C[C@H]2C(=O)N[C@@H](Cc2c[nH]c3ccccc23)C(=O)N[C@@H](CC(N)=O)C(=O)N[C@@H](Cc2cn(CC(=O)O)c3ccccc23)C(=O)N1C [Example 9005] | 0.001 to 0.0099 µM |
| CCCC[C@H]1C(=O)N(C)[C@@H](CCCC)C(=O)NC(CC(C)C)C(=O)N[C@H](C(=O)NCC(N)=O)CNCC(=O)N[C@@H](Cc2ccc(O)cc2)C(=O)N(C)[C@@H](C)C(=O)N[C@@H](CC(N)=O)C(=O)N2CCC[C@H]2C(=O)N[C@@H](CN)C(=O)N[C@@H](CC(C)C)C(=O)N2C[C@H](O)C[C@H]2C(=O)N[C@@H](Cc2c[nH]c3ccccc23)C(=O)N[C@@H](CCN)C(=O)N[C@@H](Cc2c[nH]c3ccccc23)C(=O)N1C (some centres unmarked) [Example 1029] | 0.01 to 0.099 µM |
| CCCC[C@H]1C(=O)N(C)[C@@H](CCCC)C(=O)N[C@@H](CC(C)C)C(=O)N[C@H](C(=O)NCC(N)=O)CNCC(=O)N[C@@H](Cc2ccc(O)cc2)C(=O)N(C)[C@@H](C)C(=O)N[C@@H](CC(N)=O)C(=O)N2CCC[C@H]2C(=O)N[C@@H](CCC(N)=O)C(=O)N[C@@H](CCC(N)=O)C(=O)N2C[C@H](O)C[C@H]2C(=O)N[C@@H](Cc2c[nH]c3ccccc23)C(=O)N[C@@H](CC(N)=O)C(=O)N[C@@H](Cc2cn(CC(=O)O)c3ccccc23)C(=O)N1C [Example 9008] | 0.001 to 0.0099 µM |
| CCCC[C@H]1C(=O)N(C)[C@@H](CCCC)C(=O)N[C@@H](CC(C)C)C(=O)N[C@H](C(N)=O)CNCC(=O)N[C@@H](Cc2ccc(F)cc2)C(=O)N2CCCC[C@H]2C(=O)N[C@@H](CC(N)=O)C(=O)N2CCC[C@H]2C(=O)N[C@@H](CCC(N)=O)C(=O)N[C@@H](CC(C)C)C(=O)N2C[C@H](O)C[C@H]2C(=O)N[C@@H](Cc2c[nH]c3ccccc23)C(=O)N[C@@H](CC(N)=O)C(=O)N[C@@H](Cc2cn(CC(=O)O)c3ccccc23)C(=O)N1C [Example 9030] | 0.01 to 0.099 µM |
| CCCC[C@H]1C(=O)N(C)[C@@H](CCCC)C(=O)NC(CC(C)C)C(=O)N[C@H](C(=O)NCC(N)=O)CNCC(=O)N[C@@H](Cc2ccc(O)cc2)C(=O)N(C)[C@@H](C)C(=O)N[C@@H](CC(N)=O)C(=O)N2CCC[C@H]2C(=O)N[C@@H](CC(N)=O)C(=O)N[C@@H](CC(C)C)C(=O)N2CCC[C@H]2C(=O)N[C@@H](Cc2c[nH]c3ccccc23)C(=O)N[C@@H](CC(N)=O)C(=O)N[C@@H](Cc2c[nH]c3ccccc23)C(=O)N1C (some centres unmarked) [Example 10002] | 0.01 to 0.099 µM |
| CCCC[C@H]1C(=O)N(C)[C@@H](CCCC)C(=O)N[C@@H](CC(C)C)C(=O)N[C@H](C(=O)NCC(N)=O)CCCC(=O)N[C@@H](Cc2ccc(O)cc2)C(=O)N2CCCC[C@H]2C(=O)N[C@@H](CC(N)=O)C(=O)N2CCC[C@H]2C(=O)N[C@@H](CN)C(=O)N[C@@H](CCC(=O)O)C(=O)N2C[C@H](O)C[C@H]2C(=O)N[C@@H](Cc2c[nH]c3ccccc23)C(=O)N[C@@H](CCN)C(=O)N[C@@H](Cc2cn(CC(=O)O)c3ccccc23)C(=O)N1C [Example 10508] (Y[Pip]NP[Dap]E[Hyp]W[Dab][Trp(1-CH2COOH)][NMeNle][NMeNle]L[Aad]G-NH2; lactam N-14) | 0.01 to 0.099 µM |
| CCCC[C@H]1C(=O)N(C)[C@@H](CCCC)C(=O)N[C@@H](CC(C)C)C(=O)N[C@H](C(N)=O)COCC(=O)N[C@@H](Cc2ccc(F)cc2)C(=O)N2CCCC[C@H]2C(=O)N[C@@H](CC(N)=O)C(=O)N2CCC[C@H]2C(=O)N[C@@H](CN)C(=O)N[C@@H](CCC(=O)O)C(=O)N2C[C@H](O)C[C@H]2C(=O)N[C@@H](Cc2c[nH]c3ccccc23)C(=O)N[C@@H](CCN)C(=O)N[C@@H](Cc2cn(CC(=O)O)c3ccccc23)C(=O)N1C [Example 10531] | 0.001 to 0.0099 µM |
| CCCC[C@H]1C(=O)N(C)[C@@H](CCCC)C(=O)N[C@@H](CCC(=O)O)C(=O)N[C@H](C(N)=O)CNCC(=O)N[C@@H](Cc2ccc(O)cc2)C(=O)N2CCCC[C@H]2C(=O)N[C@@H](CC(N)=O)C(=O)N2CCC[C@H]2C(=O)N[C@@H](CCC(N)=O)C(=O)N[C@@H](CC(=O)O)C(=O)N2C[C@H](O)C[C@H]2C(=O)N[C@@H](Cc2c[nH]c3ccccc23)C(=O)N[C@@H](CC(N)=O)C(=O)N[C@@H](Cc2cn(CC(=O)O)c3ccccc23)C(=O)N1C [Example 9043] | 0.001 to 0.0099 µM |
| CCCC[C@H]1C(=O)N(C)[C@@H](CCCC)C(=O)N[C@@H](CC(C)C)C(=O)N[C@H](C(N)=O)COCC(=O)N[C@@H](Cc2ccc(C)cc2)C(=O)N2CCCC[C@H]2C(=O)N[C@@H](CC(N)=O)C(=O)N2CCC[C@H]2C(=O)N[C@@H](CN)C(=O)N[C@@H](CCC(=O)O)C(=O)N2C[C@H](O)C[C@H]2C(=O)N[C@@H](Cc2c[nH]c3ccccc23)C(=O)N[C@@H](CCN)C(=O)N[C@@H](Cc2cn(CC(=O)O)c3ccccc23)C(=O)N1C [Example 10538] | 0.001 to 0.0099 µM |
| CCCC[C@H]1C(=O)N(C)[C@@H](CCCC)C(=O)N[C@@H](CC(C)C)C(=O)NCCC(=O)N[C@@H](Cc2ccc(O)cc2)C(=O)N(C)[C@@H](C)C(=O)N[C@@H](CC(N)=O)C(=O)N2CCC[C@H]2C(=O)N[C@@H](Cc2c[nH]cn2)C(=O)N[C@@H](CC(C)C)C(=O)N2C[C@H](O)C[C@H]2C(=O)N[C@@H](Cc2c[nH]c3ccccc23)C(=O)NCC(=O)N[C@@H](Cc2c[nH]c3ccccc23)C(=O)N1C [Example 5003] (cyclo(GW[NMeNle][NMeNle]L[βAla]Y[NMeA]NPHL[Hyp]W)) | 0.1 to 10 µM |
